A value given as a limit tells only on which side of the number the result lay.

Results on 13 molecules are retold here after patent US10179771B2 (GALAPAGOS NV, priority 2014, dated 2019).

This assay concerns the target T1, Recombinant human JAK2 catalytic domain (Homo sapiens, UniProt O60674).
T1 construct: Recombinant human JAK2 catalytic domain (amino acids 808-1132; catalog number PV4210); GST; purchased Invitrogen PV4210
The assay is described as follows: JAK2 inhibition assay (polyGT substrate / Ulight-JAK1 peptide assay). The assay is classed as biochemical. On the procedure: Recombinant human JAK2 catalytic domain (amino acids 808-1132; catalog number PV4210) was purchased from Invitrogen. 0.025 mU of JAK2 is incubated with […] polyGT substrate (Sigma catalog number P0275) in kinase reaction buffer (5 mM MOPS pH 7.5, 9 mM MgAc, 0.3 mM EDTA, 0.06% Brij and 0.6 mM DTT, 1 μM non-radioactive ATP, 0.25 μCi ^33P-gamma-ATP (GE Healthcare, catalog number AH9968) final concentrations) with or without 5 μL containing test compound or vehicle (DMSO, 1% final concentration), in a total volume of 25 μL, in a polypropylene 96-well plate (Greiner, V-bottom). After 90 min at 30° C., reactions are stopped by adding of 25 μL/well of 150 mM phosphoric acid. All of the terminated kinase reaction is transferred to prewashed (75 mM phosphoric acid) 96 well filter plates (Perkin Elmer catalog number 6005177) using a cell harvester (Perkin Elmer). Plates are washed 6 times with 300 μL per well of a 75 mM phosphoric acid solution and the bottom of the plates is sealed. 40 μL/well of Microscint-20 is added, the top of the plates is sealed and readout is performed using the Topcount (Perkin Elmer). Kinase activity is calculated by subtracting counts per min (cpm) obtained in the presence of a positive control inhibitor (10 μM staurosporine) from cpm obtained in the presence of vehicle. The ability of a test compound to inhibit this activity is determined as:
[formula] • RFU test compound=RFU determined for sample with test compound present • RFU control=RFU determined for sample with positive control inhibitor • RFU vehicle=RFU determined in the presence of vehicle
Dose dilution series are prepared for the compounds enabling the testing of dose-response effects in the JAK2 assay and the calculation of the IC50 for each compound. Each compound is routinely tested at concentration of 20 μM followed by a 1/3 serial dilution, 8 points (20 μM-6.67 μM-2.22 μM-740 nM-247 nM-82 nM-27 nM-9 nM) in a final concentration of 1% DMSO. When potency of compound series increased, more dilutions are prepared and/or the top concentration is lowered (e.g. 5 μM, 1 μM).
Recombinant human JAK2 (catalytic domain, amino acids 866-1154; catalog number PV4210) was purchased from Invitrogen. 0.0125 mU of JAK2 was incubated with 25 nM Ulight-JAK1 (tyr1023) peptide (Perkin Elmer catalog number TRF0121) in kinase reaction buffer (25 mM HEPES pH7.0, 0.01% Triton X-100, 7.5 mM MgCl2, 2 mM DTT, 7.5 μM ATP) with or without 4 μL containing test compound or vehicle (DMSO, 1% final concentration), in a total volume of 20 μL, in a white 384 Opti plate (Perkin Elmer, catalog number 6007290). After 60 min at room temperature, reactions were stopped by adding 20 μL/well of detection mixture (1× detection buffer (Perkin Elmer, catalog number CR97-100C), 0.5 nM Europium-anti-phosphotyrosine (PT66) (Perkin Elmer, catalog number AD0068), 10 mM EDTA). Readout is performed using the Envision with excitation at 320 nm and measuring emission at 615 nm (Perkin Elmer). Kinase activity was calculated by subtracting relative fluorescence units (RFU) obtained in the presence of a positive control inhibitor (10 μM staurosporine) from RFU obtained in the presence of vehicle. The ability of a test compound to inhibit this activity was determined as: Percentage inhibition=((RFU determined for sample with test compound present−RFU determined for sample with positive control inhibitor) divided by (RFU determined in the presence of vehicle−RFU determined for sample with positive control inhibitor))*100.
Dose dilution series are prepared for compound enabling the testing of dose-response effects in the JAK2 assay and the calculation of the IC50 for the compound. Each compound is routinely tested at concentration of 20 μM followed by a 1/5 serial dilution, 10 points in a final concentration of 1% DMSO. When potency of compound series increases, more dilutions are prepared and/or the top concentration are lowered (e.g. 5 μM, 1 μM). […]

The mark [1] stands for this setting: Illustrative Compounds of the invention (Table VII).
Setting [2] is: Comparative Compounds (Table VIII).

T1 sequence (O60674 808-1132): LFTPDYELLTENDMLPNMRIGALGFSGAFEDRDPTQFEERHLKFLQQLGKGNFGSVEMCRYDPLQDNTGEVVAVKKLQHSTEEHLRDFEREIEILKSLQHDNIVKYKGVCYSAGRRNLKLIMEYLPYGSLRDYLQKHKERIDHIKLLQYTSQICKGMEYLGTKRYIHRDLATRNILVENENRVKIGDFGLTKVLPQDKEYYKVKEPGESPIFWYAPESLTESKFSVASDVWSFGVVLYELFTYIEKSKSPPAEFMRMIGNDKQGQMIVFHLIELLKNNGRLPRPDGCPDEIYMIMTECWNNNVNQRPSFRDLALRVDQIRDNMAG

Turning to `CN(c1cc(NC(=O)[C@H]2C[C@H]2F)c2ncn(C)c2c1)c1ccc(C#N)cc1F` [Cpd 15, (1R,2R)-N-[6-(4-cyano-2-fluoro-N-methyl-anilino)-1-methyl-benzimidazol-4-yl]-2-fluoro-cyclopropanecarboxamide], the IC50 under setting [1] lay in the range of 0.1 to 0.5 µM. Regarding `CN(c1ccc2ncn(C)c2c1)c1ccc(C#N)cc1F` [C, 3-fluoro-4-[methyl-(3-methylbenzimidazol-5-yl)amino]benzonitrile, reference compound], the IC50 under setting [2] is more than 0.5 µM.

In the case of `Cc1cc(C#N)ncc1N(C)c1cc(NC(=O)[C@H]2C[C@H]2F)c2ncn(C)c2c1` [Cpd 9, (1R,2R)-N-(6-((6-cyano-4-methylpyridin-3-yl)(methyl)amino)-1-methyl-1H-benzo[d]imidazol-4-yl)-2-fluorocyclopropanecarboxamide], the IC50 under setting [1] fell in the range of 0.0001 to 0.05 µM.

As to `CNC(=O)Nc1cc(Oc2cnc(C#N)cc2C)cc2c1ncn2C`, the IC50 under setting [1] fell in the range of 0.0001 to 0.05 µM. Take `Cc1cc(C#N)ncc1Oc1cc(NC(=O)[C@H]2C[C@H]2F)c2ncn(C)c2c1` [Cpd 20, (1R,2R)-N-[6-[(6-cyano-4-methyl-3-pyridyl)oxy]-1-methyl-benzimidazol-4-yl]-2-fluoro-cyclopropanecarboxamide]: the IC50 under setting [1] was in the range of 0.05 to 0.1 µM. `CCc1cc(C#N)cc(F)c1N(C)c1cc(NC(=O)[C@@H]2C[C@@H]2F)c2ncn(C)c2c1` (racemic) [Cpd 7, N-(6-((4-cyano-2-ethyl-6-fluorophenyl)(methyl)amino)-1-methyl-1H-benzo[d]imidazol-4-yl)-2-fluorocyclopropanecarboxamide (1S,2S)/(1R,2R) racemic mixture]: the IC50 under setting [1] is 0.0001 to 0.05 µM. Consider `CCc1cc(C(N)=O)ncc1N(C)c1cc(NC(=O)[C@H]2C[C@H]2F)c2ncn(C)c2c1` [Cpd 25, 4-ethyl-5-((4-((1R,2R)-2-fluorocyclopropanecarboxamido)-1-methyl-1H-benzo[d]imidazol-6-yl)(methyl)amino)picolinamide], for which the IC50 under setting [1] is 0.0001 to 0.05 µM. With `Cc1cc(C#N)nc(F)c1N(C)c1cc(NC(=O)[C@H]2C[C@H]2F)c2ncn(C)c2c1` [Cpd 21, (1R,2R)-N-[6-[(6-cyano-2-fluoro-4-methyl-3-pyridyl)-methyl-amino]-1-methyl-benzimidazol-4-yl]-2-fluoro-cyclopropanecarboxamide], the IC50 under setting [1] is 0.0001 to 0.05 µM. As for `CN(c1cc2c(cn1)ncn2C)c1ccc(C#N)cc1F` [D, reference compound], the IC50 under setting [2] is more than 0.5 µM.

With `CNc1cc(Oc2cnc(C#N)cc2C)cc2c1ncn2C` [Cpd 34, 4-methyl-5-[3-methyl-7-(methylamino)benzimidazol-5-yl]oxy-pyridine-2-carbonitrile], the IC50 under setting [1] was more than 0.5 µM. The same measure, in the same setting: for `Cc1cc(S(C)(=O)=O)ccc1N(C)c1cc(NC(=O)[C@H]2C[C@H]2F)c2ncn(C)c2c1` [Cpd 26, (1R,2R)-N-[6-(N,2-dimethyl-4-methylsulfonyl-anilino)-1-methyl-benzimidazol-4-yl]-2-fluoro-cyclopropanecarboxamide] the value was 0.05 to 0.1 µM; for `CCc1cc(C#N)cc(F)c1N(C)c1cc(NC(=O)C2CC2)c2ncn(C)c2c1` [Cpd 3, N-(6-((4-cyano-2-ethyl-6-fluorophenyl)(methyl)amino)-1-methyl-1H-benzo[d]imidazol-4-yl)cyclopropanecarboxamide], 0.0001 to 0.05 µM; for `Cc1cc(C#N)ncc1Oc1cc(NC(=O)N2CC(O)C2)c2ncn(C)c2c1` [Cpd 36, N-[6-[(6-cyano-4-methyl-3-pyridyl)oxy]-1-methyl-benzimidazol-4-yl]-3-hydroxy-azetidine-1-carboxamide], more than 0.5 µM.

Broadly, the IC50 is the concentration at which inhibition is half-maximal.
